# Data reported in patent US11974983B2 (Duke University, priority 2018, dated 2024).
# Like-named read-outs stand apart in the source and are kept apart here.
# Assays:
# [1] = tested on: ER+ HER2− advanced or metastatic breast cancer; assay: Phase 2 clinical study, lasofoxifene versus fulvestrant; type: in vivo, postmenopausal women; conditions: 5 mg once daily oral
# Protocol: The design of the study is outlined in FIG. 26. The study is an open label, randomized, multicenter study. Full recruitment into study occurs within twelve to sixteen months, with another twelve months of follow up before the primary outcome measure is analyzed. Screening tests are performed within thirty days of enrollment. Subjects are treated until documented disease progression.
# As a comparison, fulvestrant is given to the breast cancer patient at 500 mg by intramuscular injection on day 1, day 15, and day 29, and then once every month.
# The inclusion criteria include: • 1. Postmenopausal women with: a. locally advanced or metastatic breast cancer with either measurable or non-measurable lesions, b. progression on an AI in combination with a CDK 4/6 inhibitor for advanced breast cancer; • 2. If possible, a biopsy of metastatic breast cancer tissue will be obtained to confirm ER^+ and HER2^− disease; • 3. At least one or more of the following ESR1 mutations: Y537S, Y537N, Y537C, D538G, L536, E380Q, or S463P assessed from […] in blood; • 4. Received one chemotherapy regimen in the neo-adjuvant or adjuvant setting prior to entry into the trial; • 5. ECOG performance score of 0 or 1.
# [2] = tested on: MCF7 cells stably expressing DOX-inducible ER D538G; assay: Dose response cell counting in MCF7 cells with DOX-inducible HA-tagged ER D538G; type: cell-based; conditions: for IC50: Homo sapiens, MCF7, 120 h, allele D538G, cell count day 5, full medium
# Protocol: (§1) MCF7 estrogen receptor alpha positive (ER^+) breast cancer cells were engineered to stably express doxycycline (DOX)-inducible hemagglutinin (HA)-tagged full length ER with ligand binding domain mutations Y537S and D538G. The introduction and expression of the mutants were confirmed by Sanger sequencing, RNA-sequencing, and western blot.
# (§2) The dose response studies were performed in full medium conditions. Cells were treated with DOX for the induction of HA-tagged mutated ER or with vehicle as control, and plated in triplicate. Subsequently, on day 5, cell counting was performed using the Celigo instrument with Hoechst dye staining to detect nucleated live cells and propidium iodide to quantify dead cells.
# (§3) IC50 values were calculated using PRISM.
# [3] = tested on: wild-type ERα and ERα LBD mutants Y537S, Y537N, Y537C, D538G; assay: ERE-luciferase reporter assay in Caov2 and SKBR3 cells (statements on all receptors); type: cell-based
# Protocol: ExSite mutagenesis was performed using the corresponding primers as summarized in Table 1 below on a pENTR2B ERα WT construct using Pfu ultra taq polymerase. The primers were PNK phosphorylated. Following PCR amplification, the products were digested with DpnI at 37° C. for 1 hr, followed by overnight ligation at 16° C. Ligated products were transformed into DH5α bacterial cells and grown on kanamycin resistant plates. The pENTR clones were verified by sequencing and then swapped into the pcDNA-DEST vector using the Gateway system (Invitrogen) for expression analysis.
# Caov2 ovarian carcinoma cells were grown in RPMI-1640 media (Gibco) supplemented with 8% Fetal Bovine Serum (FBS), Sodium Pyruvate (NaPyr) and non-essential amino acids (NEAA) and passaged every 2-3 days. SKBR3 breast adenocarcinoma cells were grown in DMEM media (Gibco) supplemented with 8% Fetal Bovine Serum (FBS), Sodium Pyruvate (NaPyr) and non-essential amino acids (NEAA) and passaged every 2-3 days. […]
# Caov2 cells were co-transfected with the 7X-TK-ERE-TATA luciferase reporter gene (Nagel et al., Endocrinology 142(11): 4721-4728 (2001)) and expression constructs for either wild-type or mutant receptors using Fugene transfection reagent (Promega). […] Following 24 hours of treatment, cells were lysed and the luciferase and β-gal assays were performed as described previously (Norris et al., J Biol Chem 270(39): 22777-22782 (1995)) and the plates were read on the Fusion α-FP HT plate reader (PerkinElmer Life Sciences).
# See Jeselsohn et al., Nature Reviews Clinical Oncology 12(10): 573-583 (2015); Jeselsohn et al., Clinical Cancer Research 20(7): 1757-1767 (2014); Robinson et al., Nature Genetics 45(12): 1446-1451(2013); Thomas and Gustafsson, Trends in Endocrinology and Metabolism 26(9): 467-476 (2015); and Toy et al., Nature Genetics 45(12): 1439-1445 (2013). The activity of these mutants was evaluated in a reconstituted estrogen response element (ERE)-luciferase reporter assay in Caov2 ovarian carcinoma cells and SKBR3 breast adenocarcinoma cells. […]
# [4] = cited from earlier work
# [5] = tested on: MCF7 cells stably expressing DOX-inducible ER Y537S; assay: Dose response cell counting in MCF7 cells with DOX-inducible HA-tagged ER Y537S; type: cell-based; conditions: for IC50: Homo sapiens, MCF7, 120 h, allele Y537S, cell count day 5, full medium
# Protocol: as §1, §2, §3
# [6] = DOX-induced mutant ER, read-out: IC50 DOX (ESR mutation)
# [7] = no DOX, read-out: IC50 No DOX (wt only)
structure (smiles),measurement,setting,value
"Oc1ccc2c(c1)CC[C@H](c1ccccc1)[C@@H]2c1ccc(OCCN2CCCC2)cc1 [Lasofoxifene, lasofoxifene]",median PFS compared to fulvestrant,[1]; D538G mutant patient population,increases the median PFS
same,median PFS compared to fulvestrant,[1]; E380Q mutant patient population,increases the median PFS
same,median PFS compared to fulvestrant,[1]; ESR1 mutation population,increases the median PFS
same,median PFS compared to fulvestrant,[1]; L536 mutant patient population,increases the median PFS
same,median PFS compared to fulvestrant,[1]; S463P mutant patient population,increases the median PFS
same,median PFS compared to fulvestrant,[1]; Y537C mutant patient population,increases the median PFS
same,median PFS compared to fulvestrant,[1]; Y537N mutant patient population,increases the median PFS
same,median PFS compared to fulvestrant,[1]; Y537S mutant patient population,increases the median PFS
same,"anti-estrogenic activity, cell killing with increasing dose titration","[2]; D538G stable transfectants, 10^−12 M to 10^−6 M",kill the stably transfected cells
same,IC50,[2]; [6],1000 pM
same,IC50,[2]; [7],100 pM
same,inhibition of the transcriptional activity of the ERα mutants,"[3]; all tested ERα LBD mutants, in presence of 1 nM 17-β estradiol, Caov2 and SKBR3 cells",effectively inhibited the transcriptional activity of all tested ERα LBD mutants in a dose-response manner
same,response of mutants to inhibitory action compared with WT receptor,[3]; each mutant versus WT receptor,reduced response
same,risk of breast cancer,"[4]; PEARL trial, post-menopausal women with osteoporosis",reduced the risk of breast cancer
same,risk of osteoporosis,"[4]; double-blind, placebo-controlled, randomized PEARL trial",reduce the risk of osteoporosis
same,IC50,[5]; [6],4100 pM
same,IC50,[5]; [7],360 pM
same,"anti-estrogenic activity, cell killing with increasing dose titration","[5]; Y537S stable transfectants, 10^−12 M to 10^−6 M",kill the stably transfected cells
